Patent publication US10465196B2, “Treatment of C9FTD/ALS by targeting RNA expanded repeat sequences” (THE SCRIPPS RESEARCH INSTITUTE, priority 2014, dated 2019)
pKd: −log10 of the molar value. “Also recorded” adds a separate entry of the source.

Key:
[1] = molecular target: r(CGG)12; assay: Biolayer interferometry (BLI) binding affinity, r(CGG)12
Description: (§1) The RNA (200 μL aliquots) was then added to a black 96-well plate (Greiner Bio-One). […] A sample with no compound was used as background. All experiments were performed at 30° C. with agitation set to 1000 rpm. The biotinylated RNA (ligand) was loaded onto the surface of streptavidin biosensors (SA) for 660 s. […] Biosensors were then washed in 1× Kinetics Buffer for 300 s followed by association of the compound (analyte) for 5000 s. Finally, dissociation of the ligand-analyte interaction was analyzed for 5000 s. The resulting curves were corrected by subtracting the response recorded on a sensor loaded with ligand (RNA) but incubated with no analyte (compound). Data analyses and curve fitting were completed using Octet Data Analysis, version 7.0. Experimental data were fitted using the 2:1 heterogeneous ligand (HL) curve fit. Global analysis of all data sets acquired for different analyte concentrations, assuming reversible binding, was completed using nonlinear least squares fitting. […] [formula] where [Analyte] is the concentration of compound, Req is the estimated response at equilibrium, kon is association constant, koff is dissociation constant.

[2] = system: hairpin with a fully paired stem; assay: Biolayer interferometry (BLI) binding affinity, fully paired hairpin
Description: as §1

[3] = system: (GGGGCC)66-expressing cells; assay: RNA-FISH of nuclear foci; assay type: cell-based; conditions: compound treatment 24 h
Description: RNA fluorescence in situ hybridization (FISH) of ([NT]-expressing cells. […] Cells were hybridized with denatured Cy3-conjugated ([NT])4 probe (2 ng/μl) in hybridization buffer (50% formamide, 10% dextran sulfate, 0.1 mg/mL yeast tRNA, 2×SSC, 50 mM sodium phosphate) overnight at 37° C. Cells were then washed once with 40% formamide/1×SSC for 30 min at 37° C. and twice with DEPC-PBS at room temperature for 5 min, followed by counterstaining with Hoechst 33258 (1 μg/ml, Invitrogen). Immunostained cells were visualized using a Zeiss Axiovert Fluorescence Microscope with apotome module. […] To quantify foci-bearing cells, coverslips mounted on slides were scanned by Aperio ScanScope. Ten fields were randomly selected under 20× magnification. For each field, the number of foci-positive nuclei and the total number of nuclei were counted using MetaMorph software. These counts were used to determine the average percentage of foci-positive cells for each condition.

[4] = molecular target: r(GGGGCC)8; assay: Biolayer interferometry (BLI) binding affinity, r(GGGGCC)8; conditions: BLI kinetic binding; no additional cation
Description: as §1

[5] = system: r(GGGGCC)66; assay: Identification of cellular RNA targets by 1a-CA-biotin pull-down and qRT-PCR (competitive profiling); assay type: cell-based; conditions: co-treatment with 1a-CA-biotin and compound
[6] = system: r(GGGGCC)8; assay: Optical melting of r(GGGGCC)8 in the presence of small molecule; assay type: binding; conditions: for increase of Tm of r(GGGGCC)8 / stabilization of the RNA (r(GGGGCC)8 stability): 1 μM RNA, 3 μM compound; for increase of Tm of r(GGGGCC)8 / stabilization of the RNA (r(GGGGCC)8 stability) / ΔG / Tm: 100 mM NaCl; for ΔG: 37° C.; for ΔG / ΔH / ΔS / Tm: r(GGGGCC)8 1 uM + compound 3 μM; for ΔH / ΔS: 10 mM Tris HCl pH 7.4, 100 mM NaCl
[7] = system: (GGGGCC)66-expressing cells; assay: Western blot analysis of c9RAN proteins (RAN translation); assay type: cell-based; conditions: HEK293 cells; 100 μM, 24 h (for compound 3)
[8] = system: C9ORF72+ iNeurons; assay: RNA-FISH of RNA foci in iNeurons; assay type: cell-based, human; conditions: three C9ORF72+ iNeuron lines; 2 μM, four days
Description: Qiagen) for 15 min at 37° C., or with DNase I (3 U/ml; Invitrogen) for 30 minutes at room temperature, prior to dehydration. Cells were incubated in hybridization buffer (10% dextran sulfate, 50% formamide, 50 mM sodium phosphate buffer (pH 7), 2×SSC) at 66° C. for 20-60 min. […] Cells were hybridized with probe in a sealed, light-protected chamber for 16 h-24 h at 66° C. The coverslips were subsequently washed with 0.1% Tween-20/2×SSC for 5 min followed by three 10 min stringency washes in 0.1×SSC at 66° C. The cells were stained with Hoechst (Invitrogen), rinsed with DEPC-treated water, dehydrated through 70% and 100% ethanol and air dried. Coverslips were mounted with Prolong Gold antifade reagent (Life Technologies). […] For each of 3 cell lines, 3 fields were randomly selected per condition. For each field, the number of foci-positive nuclei and the total number of nuclei were counted to determine the average percentage of foci-positive cells.

[9] = system: C9ORF72+ iNeurons; assay: Poly(GP) and poly(PR) inclusions in iNeurons (immunocytochemistry); assay type: cell-based, human; conditions: 2 or 4 μM, four days
[10] = system: (GGGGCC)66-expressing cells; assay: Poly(GP) MSD immunoassay of cell lysates; assay type: cell-based; conditions: 24 h
Description: Western blot analysis of c9RAN proteins. HEK293 cells were cultured in Opti-Mem supplemented with 10% FBS and 1% penicillin/streptomycin. […] Twenty-four hours later, cell pellets were collected. […] Western blotting was performed as previously described (Gendron et al., 2013). […] After centrifugation at 16,000×g for 20 min at 4° C., the supernatant was collected and protein concentration determined by BCA assay. […] Anti-GAPDH (1:10,000, BioDesign) was used to ensure equal loading among wells. Membranes were washed three times for 10 min in TBST and incubated with donkey anti-rabbit or anti-mouse IgG conjugated to horseradish peroxidase (1:5000; […] Protein expression was visualized by enhanced chemiluminescence treatment and exposure to film. Immunoassay analysis of c9RAN proteins. As an alternative means to measure poly(GP) proteins, Meso Scale Discovery (MSD) electrochemiluminescence detection technology was utilized to establish sandwich immunoassays using polyclonal anti-GP as capture and detection antibodies. […] Poly(GP) proteins were also measured in lysates from cultured cells (10-35 μg of protein per well) prepare as described above, or from RIPA-soluble homogenates from frozen frontal cortical tissues (35 μg of protein per well). Brain homogenates were prepared as previously described (Almeida et al., 2013). In brief, tissue was lysed in cold RIPA buffer and sonicated on ice. Lysates were cleared by centrifugation at 100,000 g for 30 min at 4° C. The supernatant was collected and protein concentration was determined by BCA assay.

[11] = system: C9ORF72 mRNA; assay: qRT-PCR of C9ORF72 mRNA in iNeurons; assay type: cell-based, human; conditions: 4 μM, 4 d; all variants and long form
Description: RNA was extracted using the Direct-Zol RNA kit combined with in-column DNase I digestion, as per the manufacturer's instructions (Zymo Research, Irvine, Calif., USA). RNA integrity was obtained using the Agilent 2100 Bioanalyzer (Agilent Technologies, Santa Clara, Calif., USA). cDNA was obtained after reverse transcription polymerase chain reactions (RT-PCR) using approximately 500 ng of RNA with random primers and the High Capacity cDNA Transcription Kit (Applied Biosystems, Foster City, Calif., USA) as per the manufacturer's instructions. […] Relative quantification of C9ORF72 variants was determined using the ΔΔCt method and normalized to GAPDH.

[12] = system: cells expressing (CGG)88 placed in the 5'UTR of GFP; assay: Western blot analysis of RAN translation in a FXTAS cell model; assay type: cell-based; conditions: COS7 cells, anti-GFP
Description: Western blot analysis of RAN translation in a FXTAS cell model. Studies were completed using a plasmid in which r(CGG)88 is embedded in the 5′ UTR of an open reading frame encoding GFP (Todd et al., 2013). Therefore, RAN products are fused to GFP and can be detected using an anti-GFP antibody (Todd et al., 2013). COS7 cells were grown as monolayers in 96-well plates in growth medium (1× DMEM, 10% FBS, and 1× GlutaMax (Invitrogen)). […] Compound 1a was added to the transfection cocktail, which was then applied to the cells. The transfection cocktail was replaced with growth medium containing 1a approximately 5 h post transfection, and the cells were incubated at 37° C. for 18 h. Cells were lysed in the plate using 100 μl/well of MPER Mammalian Protein Extraction Reagent (Pierce Biotechnology) containing 1 μl of Halt Protease Inhibitor cocktail (Thermo Scientific). Cellular proteins were separated by SDS-PAGE (10% polyacrylamide) and then transferred to a PVDF membrane by wet transfer method. Protein content was analyzed by Western blotting by using anti-GFP (Santa Cruz) or anti-β-actin (Sigma Aldrich) as primary antibodies and anti-IgG-horseradish peroxidase conjugate as the secondary antibody. Chemiluminescent signal was generated by SuperSignal West Pico Chemiluminescent substrate (Thermo Scientific), and the blot was imaged with X-ray film (Phenix Research).

[13] = system: r(CCCCGG)66-expressing cells; assay: RAN translation in cells expressing antisense repeats (immunoassay); assay type: cell-based; conditions: 100 μM, 24 h
Description: Immunoassay analysis of c9RAN proteins. As an alternative means to measure poly(GP) proteins, Meso Scale Discovery (MSD) electrochemiluminescence detection technology was utilized to establish sandwich immunoassays using polyclonal anti-GP as capture and detection antibodies. […] Poly(GP) proteins were also measured in lysates from cultured cells (10-35 μg of protein per well) prepare as described above, or from RIPA-soluble homogenates from frozen frontal cortical tissues (35 μg of protein per well). Brain homogenates were prepared as previously described (Almeida et al., 2013). In brief, tissue was lysed in cold RIPA buffer and sonicated on ice. Lysates were cleared by centrifugation at 100,000 g for 30 min at 4° C. The supernatant was collected and protein concentration was determined by BCA assay. […] A second MSD sandwich immunoassay was developed for the detection of poly(PR) proteins using polyclonal anti-PR as capture and detection antibodies. To validate specificity of the poly(PR) assay, lysates from cells transfected to express each possible protein RAN translated from the sense or antisense transcripts of the expanded C9ORF72 repeat [GFP-(GA)5, GFP-(GR)5, GFP-(GP)5, GFP-(PA)5, GFP-(PR)5] were assayed, as were lysates from cells expressing ([…]. 2F). Western blot analysis and RNA-FISH of cells expressing antisense repeats. […]

[14] = system: r(CGG)60-expressing cells; conditions: cited from earlier work
[15] = system: r(CCCCGG)66-expressing cells; assay: RNA-FISH of cells expressing antisense repeats; assay type: cell-based
Description: Western blot analysis and RNA-FISH of cells expressing antisense repeats. To examine the effect of 1a on RAN translation and foci formation in cells expressing antisense ([NT]) repeats, we utilized a previously described ([NT])66 expression vector (Gendron et al., 2013). Transfection, treatment, Western blotting, and RNA-FISH using a [NT] probe from IDT, were conducted as described above for ([NT])66-expressing cells.

[16] = system: r(GGGGCC)8; conditions: cited from earlier work

Row | Compound | Kd for r(CGG)12 compared with r(GGGGCC)8 [1] | binding to a hairpin with a fully paired stem compared with r(GGGGCC)8 [2] | percentage of foci-positive cells [3] | pKd [4] | amount of r(GGGGCC)66 that forms an adduct with 1a-CA-biotin in the presence of compound [5] | increase of Tm of r(GGGGCC)8 [6] | stabilization of the RNA (r(GGGGCC)8 stability) [6] | ΔG [6] [kcal/mol] | ΔH [6] [kcal/mol] | ΔS [6] [cal/K · mol] | Tm [6] [°C] | poly(GA) protein production (RAN translation) [7] | synthesis of poly(GP) proteins (RAN translation) [7] | also measured
1 | CCN(CC)CCNC(=O)c1cc2cc(NC(=O)c3cc4cc(N)ccc4[nH]3)ccc2[nH]1 [Compound 3] | similar | bind more weakly | not | 4.80 | significantly depleted | did not significantly affect | did not significantly affect | -9.10 ± 0.24 | -71.1 ± 1.5 | -200 ± 4 | 82.2 ± 0.2 | did not influence | modestly inhibited | –
2 | Cc1c2cc[n+](CCN3CCCCC3)cc2c(C)c2c1[nH]c1ccc(O)cc12 [Compound 1a] | similar | bind more weakly | significantly decreased | 5.01 | significantly depleted | 3.1 °C | 0.95 kcal/mol | -9.93 ± 0.15 | -74.4 ± 1.0 | -208 ± 3 | 84.7 ± 0.2 | significantly decreased | significantly decreased | percentage of cells with RNA foci [8]: significantly decreased; poly(PR) expression (inclusions), synthesized from the antisense transcript [9]: no change; percentage of cells with poly(GP) inclusions (RAN translation of poly(GP)) ([9]; listed as la): significantly decreased; also recorded: dose-dependent decrease; decrease in poly(GP) protein ([10]; 25 μM): 10%; decrease in poly(GP) protein ([10]; 50 μM): 18%; decrease in poly(GP) protein ([10]; 100 μM): 47%; C9ORF72 mRNA levels [11]: no effect; RAN translation in cells expressing (CGG)88 [12]: inhibits RAN translation; downstream canonical translation (GFP) [12]: does not affect; poly(GP) proteins RAN translated from antisense transcripts [13]: no effect; poly(PR) proteins RAN translated from antisense transcripts [13]: no effect; nuclear foci in r(CGG)60-expressing cells [14]: does reduce nuclear foci; percentage of cells bearing r(CCCCGG) foci [15]: no change
3 | C[n+]1ccc(-c2c3nc(c(-c4cc[n+](C)cc4)c4ccc([nH]4)c(-c4cc[n+](C)cc4)c4ccc([nH]4)c(-c4cc[n+](C)cc4)c4nc2C=C4)C=C3)cc1 [TMPyP4] | – | – | – | – | – | – | – | – | – | – | – | – | – | binding to r(GGGGCC)8 in vitro [16]: binds
